Laboratory results reported in ChEMBL document CHEMBL4402583, “Rational Substitution of ε-Lysine for α-Lysine Enhances the Cell and Membrane Selectivity of Pore-Forming Melittin” (J Med Chem, 2020).
Converted amounts (≈) assume the structure as drawn. The source made the active and inactive calls. No cut-off for these calls is given here.

Legend:
Pseudomonas aeruginosa = experiment: Antibacterial activity against Pseudomonas aeruginosa assessed as reduction in bacterial growth incubated for 24 hrs by broth microdilution method; type: functional
Enterococcus = experiment: Antibacterial activity against vancomycin-resistant Enterococcus assessed as reduction in bacterial growth incubated for 24 hrs by broth microdilution method; type: functional
Oryctolagus cuniculus [1] = experiment: Induction of reepithelialization in injured New Zealand white rabbit cornea assessed as wound healing administered topically for qid measured at day 2 post-injury by fluorescein sodium staining based microscopic imaging analysis (reference value: 76.6 +/- 4.5 %); type: organism-based; conditions: in vivo, topical_or_ocular
Enterococcus faecalis [2] = experiment: Induction of pore formation in intact vancomycin-resistant Enterococcus faecalis 1002 cell membrane assessed as SG uptake at 2 times MIC by SG dye based fluorescence based assay; type: organism-based
Klebsiella pneumoniae = experiment: Antibacterial activity against Klebsiella pneumoniae 1008 assessed as reduction in bacterial viability at 2 or 4 times MIC incubated up to 24 hrs in MHB medium followed by reincubation on MH agar plate for 24 to 48 hrs by time kill kinetics assay; type: functional, organism-based
Acinetobacter baumannii [3] = experiment: Antibacterial activity against Acinetobacter baumannii ATCC 19606 assessed as reduction in bacterial growth at sublethal concentrations measured after 20 serial passages by broth microdilution method; type: functional, organism-based; conditions: ATCC 19606 = CIP 70.34 = JCM 6841
T-cell [4] = experiment: Immunogenicity in human PBL T cells assessed as increase in IL-4 production at 62.5 or 125 ug/ml incubated for 24 hrs by ELISA; type: ADME, cell-based
Acinetobacter baumannii [5] = experiment: Induction of pore formation in intact Acinetobacter baumannii 1001 cell membrane assessed as SG uptake at 2 times MIC by SG dye based fluorescence based assay; type: organism-based
Oryctolagus cuniculus [6] = experiment: Induction of reepithelialization in injured New Zealand white rabbit cornea assessed as wound healing administered topically for qid measured at day 7 post-injury by fluorescein sodium staining based microscopic imaging analysis (reference value: 8.6 %); type: organism-based; conditions: in vivo, topical_or_ocular
Staphylococcus aureus [7] = experiment: Antibacterial activity against methicillin-sensitive Staphylococcus aureus assessed as reduction in bacterial growth incubated for 24 hrs by broth microdilution method; type: functional
Candida albicans = experiment: Antifungal activity against Candida albicans assessed as reduction in fungal growth incubated for 24 hrs by broth microdilution method; type: functional
Oryctolagus cuniculus [8] = experiment: Induction of reepithelialization in injured New Zealand white rabbit cornea assessed as wound healing administered topically for qid measured at day 4 post-injury by fluorescein sodium staining based microscopic imaging analysis (reference value: 48.4 +/- 7.6 %); type: organism-based; conditions: in vivo, topical_or_ocular
Oryctolagus cuniculus [9] = experiment: Induction of reepithelialization in injured New Zealand white rabbit cornea assessed as wound healing administered topically for qid measured at day 8 post-injury by fluorescein sodium staining based microscopic imaging analysis (reference value: 3.8 %); type: organism-based; conditions: in vivo, topical_or_ocular
Acinetobacter baumannii [10] = experiment: Antibacterial activity against multidrug-resistant Acinetobacter baumannii assessed as reduction in bacterial growth incubated for 24 hrs by broth microdilution method; type: functional
Oryctolagus cuniculus [11] = experiment: Induction of reepithelialization in injured New Zealand white rabbit cornea assessed as wound healing administered topically for qid measured at day 5 post-injury by fluorescein sodium staining based microscopic imaging analysis (reference value: 39.8 +/- 6.2 %); type: organism-based; conditions: in vivo, topical_or_ocular
[12] = Hemolytic activity against human erythrocytes assessed as hemoglobin release incubated for 1 hr; type: ADME, cell-based, Erythrocyte; conditions: read-out: HD50
Staphylococcus aureus [13] = experiment: Antibacterial activity against methicillin-resistance Staphylococcus aureus assessed as reduction in bacterial growth incubated for 24 hrs by broth microdilution method; type: functional
HaCaT = experiment: Cytotoxicity against human HaCaT cells assessed as truncation and reduction in cytoskeleton at 500 ug/ml incubated for 24 hrs by Alexa Fluor […] phalloidin-FITC/Hoescht dye staining based fluorescence microscopic analysis; type: cell-based
T-cell [14] = experiment: Immunogenicity in human PBL T cells assessed as increase in IL-2 production at 62.5 or 125 ug/ml incubated for 24 hrs by ELISA; type: ADME, cell-based
Enterococcus faecalis [15] = experiment: Induction of pore formation in intact vancomycin-resistant Enterococcus faecalis ATCC 29212 cell membrane assessed as SG uptake at 2 times MIC by SG dye based fluorescence based assay; type: organism-based
T-cell [16] = experiment: Immunogenicity in human PBL T cells assessed as increase in IL-5 production at 62.5 or 125 ug/ml incubated for 24 hrs by ELISA; type: ADME, cell-based
[17] = Cytotoxicity against HDF cells assessed as cell viability at 500 ug/ml incubated for 24 hrs by MTS assay relative to control; type: cell-based; conditions: human, HDF cells (NHDF, human dermal fibroblasts); read-out: Activity
Oryctolagus cuniculus [18] = experiment: Induction of reepithelialization in injured New Zealand white rabbit cornea assessed as wound healing administered topically for qid measured at day 6 post-injury by fluorescein sodium staining based microscopic imaging analysis (reference value: 24.1 +/- 8.5 %); type: organism-based; conditions: in vivo, topical_or_ocular
Enterobacteriaceae = experiment: Antibacterial activity against Carbapenem-Resistant Enterobacteriaceae assessed as reduction in bacterial growth incubated for 24 hrs by broth microdilution method; type: functional
Enterococcus faecalis [19] = experiment: Resistance index, ratio of MIC for vancomycin-resistant Enterococcus faecalis 1010 measured after 20 serial passages by broth microdilution method to MIC for vancomycin-resistant Enterococcus faecalis 1010 incubated for 24 hrs by broth microdilution method; type: functional
Acinetobacter baumannii [20] = experiment: Antibacterial activity against Acinetobacter baumannii 1001 assessed as reduction in bacterial viability at 2 or 4 times MIC incubated up to 24 hrs in MHB medium followed by reincubation on MH agar plate for 24 to 48 hrs by time kill kinetics assay; type: functional, organism-based
Oryctolagus cuniculus [21] = experiment: Induction of reepithelialization in injured New Zealand white rabbit cornea assessed as wound healing at 0.3% administered topically for qid measured at day 1 post-injury by fluorescein sodium staining based microscopic imaging analysis (reference value: 89.9 +/- 2.9 %); type: organism-based; conditions: in vivo, topical_or_ocular
Enterococcus faecalis [22] = experiment: Antibacterial activity against vancomycin-resistant Enterococcus faecalis 1010 assessed as log10 reduction in bacterial viability at 2 to 4 times MIC incubated for 30 mins in MHB medium followed by reincubation on MH agar plate for 24 to 48 hrs by time kill kinetics analysis; type: functional
NHDF = experiment: Cytotoxicity against HDF cells assessed as truncation and reduction in cytoskeleton at 500 ug/ml incubated for 24 hrs by Alexa Fluor […] phalloidin-FITC/Hoescht dye staining based fluorescence microscopic analysis; type: cell-based; conditions: human
Escherichia coli [23] = experiment: Induction of pore formation in intact Escherichia coli 1004 cell membrane assessed as SG uptake at 2 times MIC by SG dye based fluorescence based assay; type: organism-based
Oryctolagus cuniculus [24] = experiment: Induction of reepithelialization in injured New Zealand white rabbit cornea assessed as wound healing administered topically for qid measured at day 3 post-injury by fluorescein sodium staining based microscopic imaging analysis (reference value: 63.9 +/- 5.3 %); type: organism-based; conditions: in vivo, topical_or_ocular
Escherichia coli [25] = experiment: Antibacterial activity against Escherichia coli 1004 assessed as reduction in bacterial viability at 2 or 4 times MIC incubated up to 24 hrs in MHB medium followed by reincubation on MH agar plate for 24 to 48 hrs by time kill kinetics assay; type: functional, organism-based
[26] = Stability of the compound in rabbit tear fluids assessed as parent compound remaining measured after 4 hrs by UPLC-MS analysis; type: ADME, Oryctolagus cuniculus; conditions: tear fluid, read-out: Stability
T-cell [27] = experiment: Immunogenicity in human PBL T cells assessed as increase in IFN-gamma production at 62.5 or 125 ug/ml incubated for 24 hrs by ELISA; type: ADME, cell-based
Enterococcus faecalis [28] = experiment: Antibacterial activity against vancomycin-resistant Enterococcus faecalis ATCC 29212 assessed as log10 reduction in bacterial viability at 2 to 4 times MIC incubated for 30 mins in MHB medium followed by reincubation on MH agar plate for 24 to 48 hrs by time kill kinetics analysis; type: functional
[29] = Stability of the compound in rabbit tear fluid measured after 2 hrs by UPLC-MS analysis; type: ADME, Oryctolagus cuniculus
Enterococcus faecalis [30] = experiment: Antibacterial activity against vancomycin-resistant Enterococcus faecalis 1002 assessed as log10 reduction in bacterial viability at 2 to 4 times MIC incubated for 30 mins in MHB medium followed by reincubation on MH agar plate for 24 to 48 hrs by time kill kinetics analysis; type: functional
Staphylococcus aureus [31] = experiment: In vivo antibacterial activity against Staphylococcus aureus ATCC 29213 infected in C57BL/6 mouse assessed as reduction in bacterial burden by measuring log10 CFU/cornea at 0.3% administered topically as two times on day 1, four times on day 2 and two times on day 3 measured at 48 hrs post-final dose by 10 fold serial dilution method (reference value: 6.5 +/- 0.7 log10CFU); type: functional

CC[C@H](C)[C@H](NC(=O)CN)C(=O)NCC(=O)N[C@@H](C)C(=O)N[C@H](C(=O)N[C@@H](CC(C)C)C(=O)NCCC[C@@H](CN)C(=O)N[C@H](C(=O)N[C@@H](CC(C)C)C(=O)N[C@H](C(=O)N[C@H](C(=O)NCC(=O)N[C@@H](CC(C)C)C(=O)N1CCC[C@H]1C(=O)N[C@@H](C)C(=O)N[C@@H](CC(C)C)C(=O)N[C@H](C(=O)N[C@@H](CO)C(=O)N[C@@H](Cc1c[nH]c2ccccc12)C(=O)N[C@H](C(=O)NCCC[C@@H](CN)C(=O)N[C@@H](CCCNC(=N)N)C(=O)N[C@@H](CCCCN)C(=O)N[C@@H](CCCNC(=N)N)C(=O)N[C@@H](CCC(N)=O)C(=O)N[C@@H](CCC(N)=O)C(N)=O)[C@@H](C)CC)[C@@H](C)CC)[C@@H](C)O)[C@@H](C)O)C(C)C)C(C)C gave an MIC (Pseudomonas aeruginosa) of 8 to 64 µg/mL (≈ 2.81 to 22.5 µM), an MIC50 (Pseudomonas aeruginosa) of 32 µg/mL (≈ 11.2 µM) and an MIC (Enterococcus) of 4 to 16 µg/mL (≈ 1.41 to 5.62 µM). The MIC50 (Enterococcus) was 8 µg/mL (≈ 2.81 µM), the Activity (Oryctolagus cuniculus [1]) was 60.3% and the Activity (Enterococcus faecalis [2]) was “Active”. The Activity (Klebsiella pneumoniae) was “Active”, the Activity (Acinetobacter baumannii [3]) was “Active” and the Activity (T-cell [4]) was “Non-Toxic”. The Activity (Acinetobacter baumannii [5]) was “Active”, the Activity (Oryctolagus cuniculus [6]) was 4.6% and the MIC (Staphylococcus aureus [7]) was 16 to 128 µg/mL (≈ 5.62 to 45 µM). For the same molecule, the MIC50 (Staphylococcus aureus [7]) was 64 µg/mL (≈ 22.5 µM), the MIC (Candida albicans) was 16 to 32 µg/mL (≈ 5.62 to 11.2 µM) and the MIC50 (Candida albicans) was 32 µg/mL (≈ 11.2 µM). For the same molecule, the Activity (Oryctolagus cuniculus [8]) was 33.1%, the Activity (Oryctolagus cuniculus [9]) was 2.9% and the MIC (Acinetobacter baumannii [10]) was 2 to 8 µg/mL (≈ 0.703 to 2.81 µM). It also gave an MIC50 (Acinetobacter baumannii [10]) of 4 µg/mL (≈ 1.41 µM), an Activity (Oryctolagus cuniculus [11]) of 21.7% and an HC50 at 1 h [12] of 215 µg/mL. The MIC50 (Staphylococcus aureus [13]) was 64 µg/mL (≈ 22.5 µM), the Activity (HaCaT) was “Toxic” and the Activity (T-cell [14]) was “Non-Toxic”. The Activity (Enterococcus faecalis [15]) was “Active”, the Activity (T-cell [16]) was “Non-Toxic” and the viability at 24 h, 500 ug/ml [17] was 91.9%. The Activity (Oryctolagus cuniculus [18]) was 14.7%, the MIC (Enterobacteriaceae) was 4 to 64 µg/mL (≈ 1.41 to 22.5 µM) and the MIC50 (Enterobacteriaceae) was 8 µg/mL (≈ 2.81 µM). The Ratio (Enterococcus faecalis [19]) was 4, the Activity (Acinetobacter baumannii [20]) was “Active” and the Activity (Oryctolagus cuniculus [21]) was 83.4%. The “log(activity)” value (Enterococcus faecalis [22]) was over 5, the Activity (NHDF) was “Toxic” and the Activity (Escherichia coli [23]) was “Active”. For the same molecule, the Activity (Oryctolagus cuniculus [24]) was 44.9%, the Activity (Escherichia coli [25]) was “Active” and the remaining at 4 h [26] was 90.3%. For the same molecule, the Activity (T-cell [27]) was “Non-Toxic”, the “log(activity)” value (Enterococcus faecalis [28]) was over 5 and the Stability [29] was “Stable”. The “log(activity)” value (Enterococcus faecalis [30]) was over 5 and the Activity (Staphylococcus aureus [31]) was 3.9 log10CFU.
